Experiment [1] has as its target T1, D2 (dopamine autoreceptor) (Rattus norvegicus, UniProt P61169).
T1 construct: homogenized rat striatal brain tissue; from tissue; host or cells: rat striatal brain tissue (homogenate)
The experiment in a line: Affinity for dopamine autoreceptor (D2 high-affinity agonist state), 3H-quinpirole binding, rat striatal brain tissue. To be noted: read-out: IC50 (nM) D2 Quin. The protocol:
Affinity for the dopamine autoreceptor was established by a modification of the standard experimental test procedure of Seemen and Schaus, European Journal of Pharmacology 203: 105-109, 1991, wherein homogenized rat striatal brain tissue is incubated with ^3 H-quinpirole (Quin.) and various concentrations of test compound, filtered and washed and counted in a Betaplate scintillation counter.

The next experiment deals with T2, dopamine D-2 receptor (Rattus norvegicus, UniProt P61169).
T2 construct: homogenized limbic brain tissue; from tissue; host or cells: limbic brain tissue (homogenate)
T2 sequence (P61169 whole entry): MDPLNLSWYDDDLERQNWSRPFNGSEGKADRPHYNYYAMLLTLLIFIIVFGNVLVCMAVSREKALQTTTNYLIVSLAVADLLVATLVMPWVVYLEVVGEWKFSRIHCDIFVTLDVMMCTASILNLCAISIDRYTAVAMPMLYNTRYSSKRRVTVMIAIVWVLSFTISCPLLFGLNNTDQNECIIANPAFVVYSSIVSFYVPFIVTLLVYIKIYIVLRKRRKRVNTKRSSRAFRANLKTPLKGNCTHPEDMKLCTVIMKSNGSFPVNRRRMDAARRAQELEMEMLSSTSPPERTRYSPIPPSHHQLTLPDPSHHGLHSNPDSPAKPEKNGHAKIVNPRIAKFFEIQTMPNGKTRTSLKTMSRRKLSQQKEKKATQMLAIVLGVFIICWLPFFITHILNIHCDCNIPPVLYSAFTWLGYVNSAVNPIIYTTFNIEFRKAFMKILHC
The experiment in a line: Affinity for dopamine D-2 receptor, 3H-spiroperidol (Spiper.) binding, homogenized limbic brain tissue. To be noted: read-out: IC50 (nM) D2 Spiper. The procedure: High affinity for the dopamine D-2 receptor was established by the standard experimental test procedure of Fields, et al., Brain Res., 136, 578 (1977) and Yamamura et al., eds., Neurotransmitter Receptor Binding, Raven Press, N.Y. (1978) wherein homogenized limbic brain tissue is incubated with ^3 H-spiroperidol (Spiper.) and various concentrations of test compound, filtered and washed and shaken with Hydrofluor scintillation cocktail (National Diagnostics) and counted in a Packard 460 CD scintillation counter.

T1 sequence (P61169 whole entry): as above

Consider `O=c1[nH]c2cc(Cl)cc(OCCNCc3cccs3)c2[nH]1` [Example 10, 6-Chloro-4-{2-[(thiophen-2-ylmethyl)-amino]-ethoxy}-1,3-dihydro-benzoimidazol-2-one], for which the concentration for half-maximal inhibition (IC50) in experiment [1] came to 0.47 nM; on dopamine D-2 receptor it was 58 nM.
For the compound `O=c1[nH]c2cccc(OCCNCc3cccs3)c2[nH]1` [Example 7, 4-{2-[(Thiophen-2-ylmethyl)-amino]-ethoxy}-1,3-dihydro-benzoimidazol-2-one], the 50% inhibitory concentration (IC50) was found to be 0.51 nM in experiment [1] and 255 nM at dopamine D-2 receptor.
The corresponding values for `Cc1ccc(CNCCOc2cccc3[nH]c(=O)[nH]c23)cc1` [Example 2, 4-[2-(4-Methyl-benzylamino)-ethoxy]-1,3-dihydro-benzoimidazol-2-one] are 0.29 nM and 28.5 nM.
Taken in the same sequence, the figures for `O=c1[nH]c2cc(Cl)cc(OCCNCc3ccsc3)c2[nH]1` [Example 11, 6-Chloro-4-{2-[(thiophen-3-ylmethyl)-amino]-ethoxy}-1,3-dihydro-benzoimidazol-2-one] were 0.31 nM and 67 nM.
Turning to `O=c1[nH]c2cccc(OCCNCc3ccc(Cl)cc3)c2[nH]1` [Example 8, 4-[2-(4-Chloro-benzylamino)-ethoxy]-1,3-dihydro-benzoimidazol-2-one], the IC50 stood at 0.3 nM in experiment [1] and 99.5 nM on dopamine D-2 receptor.
Take `O=c1[nH]c2cccc(OCCNCc3ccccc3)c2[nH]1` [Example 1, 4-(2-Benzylamino-ethoxy)-1,3-dihydro-benzoimidazol-2-one]: the IC50 in experiment [1] was 0.51 nM; on dopamine D-2 receptor, 60.6 nM.
The corresponding values for `CC(C)(C)c1ccc(CNCCOc2cccc3[nH]c(=O)[nH]c23)cc1` [Example 6, 4-[2-(4-tert-Butyl-benzylamino)-ethoxy]-1,3-dihydro-benzoimidazol-2-one] are 0.81 nM and 47.8 nM.
Turning to `O=c1[nH]c2cc(Cl)cc(OCCNCc3ccccc3)c2[nH]1` [Example 9, 4-(2-Benzylamino-ethoxy)-6-chloro-1,3-dihydro-benzoimidazol-2-one], the IC50 came out at 0.48 nM in experiment [1] and 34.6 nM on dopamine D-2 receptor.
Taken in the same sequence, the figures for `O=c1[nH]c2cccc(OCCCNCc3ccccc3)c2[nH]1` [Example 4, 4-(3-Benzylamino-propoxy)-1,3-dihydro-benzoimidazol-2-one] were 126 nM and 5980 nM.
As to `Cn1c(=O)[nH]c2cccc(OCCNCc3ccccc3)c21` [Example 3, 4(7)-(2-Benzylamino-ethoxy)-1-(3)-methyl-1,3-dihydro-benzoimidazol-2-one], the values for the IC50 (in experiment [1]; at dopamine D-2 receptor) were 2.92 nM and 1350 nM, respectively.
On to `O=c1[nH]c2cccc(OCCNCCCc3ccccc3)c2[nH]1` [Example 13, 4-[2-(3-Phenyl-propylamine)-ethoxy]-1,3-dihydro-benzoimidazol-2-one], for which the IC50 in experiment [1] came out at 0.3 nM; on dopamine D-2 receptor, 30 nM.
With `O=c1[nH]c2cccc(OCCN3CCc4ccccc4C3)c2[nH]1` [Example 12, 4-[2-(2,3-Dihydro-1H-isoquinolin-2yl)-ethoxy]-1,3-dihydro-benzoimidazol-2-one], the IC50 in experiment [1] is 12 nM; at dopamine D-2 receptor, 658 nM.
Taken in the same sequence, the figures for `O=c1[nH]c2cccc(OCCNCc3cccc4ccccc34)c2[nH]1` [Example 5, 4-{2-[(Naphthalen-1-ylmethyl)-amino]-ethoxy}-1,3-dihydro-benzoimidazol-2-one] were 0.6 nM and 38.7 nM.

A word on the IC50: it is the point on the concentration scale where inhibition reaches its midpoint.

These data come from patent publication US5990144A, “4-aminoalkoxy-1,3-dihydrobenzoimidazol-2-one dopamine autoreceptor agonists” (American Home Products Corporation, priority 1998, dated 1999).
